Experimental data published in ChEMBL document CHEMBL5584339, “Design, Synthesis, and Evaluation of the Antitubercular Activity of 5-Phenyl Substituted-5, 6-dihydropyrido[2, 3-d]pyrimidine-4, 7(3H, 8H)-dione Compounds” (J Med Chem, 2024).
In brackets after ≈: the same amount, converted by molar mass. Activity calls are given as the source filed them. The rule behind the calls is not given here.

Tests used:
[1] = Metabolic stability in human liver microsomes assessed as substrate remaining at 2 uM preincubated for 60 mins followed by NADPH addition and measured upto 60 mins by LC-MS analysis; assay type: ADME, Microsome; conditions: time < 120 min, read-out: Stability
[2] = system: Mycobacterium tuberculosis; experiment: Binding affinity to Mycobacterium tuberculosis AccD5 at 10 uM by SPR analysis
[3] = Metabolic stability in human liver microsomes assessed as half-life at 2 uM preincubated for 60 mins followed by NADPH addition and measured upto 60 mins by LC-MS analysis; assay type: ADME, Microsome; conditions: time < 120 min
[4] = Metabolic stability in human liver microsomes assessed as intrinsic clearance per mg protein at 2 uM preincubated for 60 mins followed by NADPH addition and measured upto 60 mins by LC-MS analysis; assay type: ADME, Microsome; conditions: time < 120 min, read-out: CLH
[5] = system: Mycobacterium marinum; experiment: Antitubercular activity against Mycobacterium […] assessed as bactericidal effect by measuring colony forming unit at 200 uM measured over 10 days; assay type: functional; conditions: time 10 day
[6] = system: Mycobacterium marinum; experiment: Antitubercular activity against Mycobacterium marinum infected in adult zebrafish assessed as reduction in bacterial count by measuring CFU at 50 uM measured over 10 days; assay type: functional; conditions: time 10 day
[7] = Observed clearance in BALB/c mouse at 5 mg/kg, iv measured upto 24 hrs by LC-MS/MS analysis; assay type: ADME, organism-based; conditions: in vivo
[8] = Cmax in BALB/c mouse at 30 mg/kg, po measured upto 24 hrs by LC-MS/MS analysis; assay type: ADME, organism-based; conditions: in vivo
[9] = Dose normalized AUClast in BALB/c mouse at 30 mg/kg, po measured upto 24 hrs by LC-MS/MS analysis; assay type: ADME, organism-based; conditions: in vivo
[10] = Tmax in BALB/c mouse at 30 mg/kg, po measured upto 24 hrs by LC-MS/MS analysis; assay type: ADME, organism-based; conditions: in vivo
[11] = system: Mycobacterium tuberculosis; experiment: Antitubercular activity against Mycobacterium tuberculosis H37Rv incubated for 7 days by alamar blue assay; assay type: functional; conditions: 168 h, time 7 day
[12] = Observed volume of distribution at steady state in BALB/c mouse at 5 mg/kg, iv measured upto 24 hrs by LC-MS/MS analysis; assay type: ADME, organism-based; conditions: in vivo, read-out: Vdss
[13] = AUCinfinity in BALB/c mouse at 30 mg/kg, po measured upto 24 hrs by LC-MS/MS analysis; assay type: ADME, organism-based; conditions: in vivo
[14] = Metabolic stability in mouse liver microsomes assessed as substrate remaining at 2 uM preincubated for 60 mins followed by NADPH addition and measured upto 60 mins by LC-MS analysis; assay type: ADME, Microsome; conditions: time < 120 min, read-out: Stability
[15] = AUClast in BALB/c mouse at 5 mg/kg, iv measured upto 24 hrs by LC-MS/MS analysis; assay type: ADME, organism-based; conditions: in vivo
[16] = Cytotoxicity against african green monkey Vero cells incubated for 48 hrs by CCK8 assay; assay type: toxicity, cell-based, Chlorocebus sabaeus
[17] = Stability in mouse plasma by MS analysis; assay type: ADME, cell-free
[18] = system: Mycobacterium marinum; experiment: Antitubercular activity against Mycobacterium marinum infected in adult zebrafish assessed as reduction in bacterial count by measuring CFU at 100 uM measured over 10 days; assay type: functional; conditions: time 10 day
[19] = biological target: Voltage-gated inwardly rectifying potassium channel KCNH2 (Homo sapiens, UniProt Q12809); experiment: Inhibition of human ERG expressed in HEK293 cells by whole cell manual patch clamp method; assay type: toxicity, cell-based
Voltage-gated inwardly rectifying potassium channel KCNH2, sequence (Q12809 whole entry): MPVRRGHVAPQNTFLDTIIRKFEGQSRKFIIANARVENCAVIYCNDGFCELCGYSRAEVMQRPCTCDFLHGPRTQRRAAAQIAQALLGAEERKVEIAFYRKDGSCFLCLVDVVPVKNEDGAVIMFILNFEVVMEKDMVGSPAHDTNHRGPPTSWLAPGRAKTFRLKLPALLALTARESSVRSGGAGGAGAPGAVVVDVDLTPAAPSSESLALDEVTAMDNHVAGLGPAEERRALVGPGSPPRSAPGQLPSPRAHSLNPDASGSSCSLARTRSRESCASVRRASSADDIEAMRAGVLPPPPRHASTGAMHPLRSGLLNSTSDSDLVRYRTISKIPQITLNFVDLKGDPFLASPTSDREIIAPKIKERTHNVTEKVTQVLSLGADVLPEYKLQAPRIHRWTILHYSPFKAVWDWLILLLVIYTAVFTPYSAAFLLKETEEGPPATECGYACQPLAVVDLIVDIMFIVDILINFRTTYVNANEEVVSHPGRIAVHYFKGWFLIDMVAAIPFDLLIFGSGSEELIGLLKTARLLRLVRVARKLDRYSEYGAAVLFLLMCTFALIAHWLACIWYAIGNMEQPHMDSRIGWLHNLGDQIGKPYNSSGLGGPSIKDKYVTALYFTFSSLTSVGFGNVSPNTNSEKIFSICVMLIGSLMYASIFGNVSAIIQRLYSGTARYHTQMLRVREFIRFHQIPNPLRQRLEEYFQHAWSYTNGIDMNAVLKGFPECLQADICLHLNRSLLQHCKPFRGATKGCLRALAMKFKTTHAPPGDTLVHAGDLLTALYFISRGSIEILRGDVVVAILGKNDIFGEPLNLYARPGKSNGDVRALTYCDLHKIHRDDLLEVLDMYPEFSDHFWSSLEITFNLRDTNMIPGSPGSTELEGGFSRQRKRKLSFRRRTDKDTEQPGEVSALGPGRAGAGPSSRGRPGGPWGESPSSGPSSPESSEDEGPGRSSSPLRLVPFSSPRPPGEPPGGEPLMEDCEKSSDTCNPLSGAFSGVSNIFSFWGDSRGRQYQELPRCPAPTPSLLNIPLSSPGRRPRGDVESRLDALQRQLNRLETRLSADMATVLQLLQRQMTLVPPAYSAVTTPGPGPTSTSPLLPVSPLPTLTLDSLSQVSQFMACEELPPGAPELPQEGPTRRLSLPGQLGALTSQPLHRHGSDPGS

[20] = Half-life in BALB/c mouse at 30 mg/kg, po measured upto 24 hrs by LC-MS/MS analysis; assay type: ADME, organism-based; conditions: in vivo
[21] = Observed mean residence time infinity in BALB/c mouse at 30 mg/kg, po measured upto 24 hrs by LC-MS/MS analysis; assay type: ADME, organism-based; conditions: in vivo
[22] = AUCinfinity in BALB/c mouse at 5 mg/kg, iv measured upto 24 hrs by LC-MS/MS analysis; assay type: ADME, organism-based; conditions: in vivo
[23] = Metabolic stability in mouse liver microsomes assessed as half-life at 2 uM preincubated for 60 mins followed by NADPH addition and measured upto 60 mins by LC-MS analysis; assay type: ADME, Microsome; conditions: time < 120 min
[24] = system: Mycobacterium marinum; experiment: Antitubercular activity against Mycobacterium […] assessed as bactericidal effect by measuring colony forming unit at 100 uM measured over 10 days; assay type: functional; conditions: time 10 day
[25] = Dose normalized AUClast in BALB/c mouse at 5 mg/kg, iv measured upto 24 hrs by LC-MS/MS analysis; assay type: ADME, organism-based; conditions: in vivo
[26] = Oral bioavailability in BALB/c mouse at 30 mg/kg measured upto 24 hrs by LC-MS/MS analysis; assay type: ADME, organism-based; conditions: in vivo
[27] = Observed extrapolated AUC in BALB/c mouse at 5 mg/kg, iv measured upto 24 hrs by LC-MS/MS analysis; assay type: ADME, organism-based; conditions: in vivo
[28] = AUClast in BALB/c mouse at 30 mg/kg, po measured upto 24 hrs by LC-MS/MS analysis; assay type: ADME, organism-based; conditions: in vivo
[29] = Initial plasma concentration in BALB/c mouse at 5 mg/kg, iv measured upto 24 hrs by LC-MS/MS analysis; assay type: ADME, organism-based
[30] = Half-life in BALB/c mouse at 5 mg/kg, iv measured upto 24 hrs by LC-MS/MS analysis; assay type: ADME, organism-based; conditions: in vivo
[31] = Observed mean residence time infinity in BALB/c mouse at 5 mg/kg, iv measured upto 24 hrs by LC-MS/MS analysis; assay type: ADME, organism-based; conditions: in vivo
[32] = system: Mycobacterium marinum; experiment: Antitubercular activity against Mycobacterium marinum infected in zebrafish larvae assessed as increase survival rate at 12.5 to 200 uM measured over 10 days by qPCR analysis; assay type: functional, organism-based; conditions: dose 12.5-200 µM, time 10.0 day
[33] = Observed extrapolated AUC in BALB/c mouse at 30 mg/kg, po measured upto 24 hrs by LC-MS/MS analysis; assay type: ADME, organism-based; conditions: in vivo
[34] = Metabolic stability in mouse liver microsomes assessed as intrinsic clearance per mg protein at 2 uM preincubated for 60 mins followed by NADPH addition and measured upto 60 mins by LC-MS analysis; assay type: ADME, Microsome; conditions: time < 120 min, read-out: CLH
[35] = system: Mycobacterium marinum; experiment: Antitubercular activity against Mycobacterium marinum infected in adult zebrafish assessed as reduction in bacterial count by measuring CFU at 200 uM measured over 10 days; assay type: functional; conditions: time 10 day
[36] = Cytotoxicity against HK-2 cells incubated for 48 hrs by CCK8 assay; assay type: toxicity, cell-based; conditions: human
[37] = Selectivity index, ratio of IC50 for african green monkey Vero cells to IC50 for Mycobacterium tuberculosis H37Rv; assay type: toxicity; conditions: read-out: Ratio IC50
[38] = system: Mycobacterium marinum; experiment: Antitubercular activity against Mycobacterium marinum infected in adult zebrafish assessed as reduction in bacterial count by measuring CFU at 400 uM measured over 10 days; assay type: functional; conditions: time 10 day

For CCCSc1nc2c(c(=O)[nH]1)[C@@H](c1ccc(OC)cc1[N+](=O)[O-])CC(=O)N2, the remaining at 1 h, 2 µM [1] was 83.3%, the Activity [2] was “Active” and the half-life at 2 µM [3] was 3.57 h. The microsomal CLint at 2 µM [4] was 6.47 µL/min/mg, the Activity [5] was less than 10 CFU and the Activity [6] was 1 10^2CFU. It also gave a clearance [7] of 0.5 mL/min/kg, a Cmax [8] of 54000 ng/mL and an AUClast/dose [9] of 19820 kg·ng·h/mL/mg. It also gave a Tmax [10] of 0.417 h, an MIC [11] of 3 µg/mL (≈ 7.68 µM) and a Vd [12] of 0.488 L/kg. It also gave an AUC(0-inf) [13] of 669 µg·h/mL, a remaining at 1 h, 2 µM [14] of 86.2% and an AUC(0-t) at 24 h [15] of 131 µg·h/mL. The IC50 at 48 h [16] was greater than 64 µg/mL, the Stability [17] was “Stable” and the Activity [18] was 2.5 10^3CFU. It also gave an IC50 [19] greater than 30 µM, a half-life [20] of 7.95 h and an MRT inf [21] of 10.1 h. The AUC(0-inf) [22] was 175 µg·h/mL, the half-life at 2 µM [23] was 5.72 h and the Activity [24] was 80 CFU. For the same molecule, the AUClast/dose [25] was 26110 kg·ng·h/mL/mg, the bioavailability [26] was 63.8% and the “%AUCextra” value [27] was 25.2%. The AUC(0-t) at 24 h [28] was 595 µg·h/mL, the C0 at 24 h [29] was 32300 ng/mL and the half-life [30] was 13.1 h. For the same molecule, the MRT inf [31] was 16.4 h, the Activity [32] was “Active” and the “%AUCextra” value [33] was 11.2%. For the same molecule, the microsomal CLint at 2 µM [34] was 4.04 µL/min/mg, the Activity [35] was 1.6 10^4CFU and the IC50 at 48 h [36] was 41.1 µg/mL (≈ 105 µM).
In the case of CCCSc1nc2c(c(=O)[nH]1)[C@@H](c1ccc(OC)cc1)CC(=O)N2, the remaining at 1 h, 2 µM [1] is reported as 69.8%, the half-life at 2 µM [3] is reported as 2 h and the microsomal CLint at 2 µM [4] is reported as 11.5 µL/min/mg. The Activity [5] was less than 80 CFU, the Activity [6] was 2 10^2CFU and the clearance [7] was 0.673 mL/min/kg. For the same molecule, the Cmax [8] was 43300 ng/mL, the AUClast/dose [9] was 13676 kg·ng·h/mL/mg and the Tmax [10] was 0.5 h. For the same molecule, the MIC [11] was 0.06 µg/mL (≈ 0.174 µM), the Vd [12] was 0.312 L/kg and the AUC(0-inf) [13] was 424 µg·h/mL. For the same molecule, the remaining at 1 h, 2 µM [14] was 88.5%, the AUC(0-t) at 24 h [15] was 116 µg·h/mL and the IC50 at 48 h [16] was greater than 64 µg/mL. The Activity [18] was 8 10^3CFU, the IC50 [19] was 24.4 µM and the half-life [20] was 5.14 h. For the same molecule, the MRT inf [21] was 6.85 h, the AUC(0-inf) [22] was 125 µg·h/mL and the half-life at 2 µM [23] was 6.16 h. For the same molecule, the Activity [24] was less than 80 CFU, the AUClast/dose [25] was 23295 kg·ng·h/mL/mg and the bioavailability [26] was 56.7%. The “%AUCextra” value [27] was 6.41%, the AUC(0-t) at 24 h [28] was 410 µg·h/mL and the C0 at 24 h [29] was 45400 ng/mL. For the same molecule, the half-life [30] was 7.01 h, the MRT inf [31] was 7.8 h and the Activity [32] was “Active”. The “%AUCextra” value [33] was 3.35%, the microsomal CLint at 2 µM [34] was 3.75 µL/min/mg and the Activity [35] was 1.9 10^5CFU. It also gave an IC50 at 48 h [36] of 32.5 µg/mL (≈ 94 µM).
For CO[C@H]1/C=C/O[C@@]2(C)Oc3c(C)c(O)c4c(O)c(c(/C=N/N5CCN(C)CC5)c(O)c4c3C2=O)NC(=O)/C(C)=C\C=C\[C@H](C)[C@H](O)[C@@H](C)[C@@H](O)[C@@H](C)[C@H](OC(C)=O)[C@@H]1C [RIFAMPIN], the selectivity ratio [37] was greater than 5000, the Activity [38] was 1.5 10^2CFU and the MIC [11] was 0.02 µg/mL (≈ 0.0243 µM). For the same molecule, the IC50 at 48 h [16] was greater than 100 µg/mL and the Activity [18] was 4 10^4CFU.
